Experimental data as given in patent US20060079453A1, “Hla binding peptides and their uses” (priority 2002, published 2006).
Read-outs that look alike come from different tables or passages of the source. No end group written: not given here.

Assays:
Experiment in all cases: biochemical
Type in all cases: binding
[1] = target: HLA-DR DRB1*0401 (DR4) (Homo sapiens, UniProt P01903+P01911, A100K/A169T/F76Y/I96L/K127E/L162R/M171V/N62H/P40V/Q125Y/R42H/S133A/S149N/S66Y/V115G/V209L/W38E)
[2] = target: HLA-DR DRB1*0101 (DR1) (Homo sapiens, UniProt P01903+P01911, A100R/D57E/F55L/F60I/F76Y/I96L/L162R/M171V/P40L/Q125E/R42F/V115G/Y59C)
[3] = target: HLA-DR DRB1*1501 (DR15) (Homo sapiens, UniProt P01903+P01911)
[4] = target: HLA-DR DRB4*0101 (DR53) (Homo sapiens, UniProt P01903+P13762, G164S)
[5] = target: HLA-DR DRB1*1302 (DR13) (Homo sapiens, UniProt P01903+P01911, A100E/A169T/K41T/L162R/M171V/P40S/Q125H/Q178H/Q39Y/Q99D/R42S/S66N/T262R/V115G/W38E/Y61H); details: read-out: DRBI *1302
[6] = target: HLA-DR DRB5*0101 (DR51) (Homo sapiens, UniProt P01903+Q30154)
[7] = target: HLA-DR DRB1*0701 (DR7) (Homo sapiens, UniProt P01903+P01911, A100R/A102G/A103Q/D57E/D86V/E43K/F76Y/K127E/L162R/M171V/P40G/Q125H/Q99D/R33Q/R42Y/R54Q/S133A/S66F/T210M/V115G/Y107V/Y59L/Y89S); details: read-out: DRB1 *0701

Chain of HLA-DR DRB1*1302 (DR13) (P01903 26-254 limits assumed, other chains not shown): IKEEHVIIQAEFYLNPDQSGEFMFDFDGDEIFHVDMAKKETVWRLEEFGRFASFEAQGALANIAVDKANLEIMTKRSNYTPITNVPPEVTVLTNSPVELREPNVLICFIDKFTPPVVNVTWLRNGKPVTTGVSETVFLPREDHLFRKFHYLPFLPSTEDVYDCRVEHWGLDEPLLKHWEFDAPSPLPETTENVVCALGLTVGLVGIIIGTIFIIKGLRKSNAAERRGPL

Compound | IC50 ([1]; DRB1 *0401) | IC50 ([2]; DRB1 *0101) | further results
C[C@H](NC(=O)[C@H](C)NC(=O)[C@H](C)NC(=O)[C@H](C)NC(=O)[C@H](C)NC(=O)[C@H](C)NC(=O)[C@H](C)NC(=O)[C@H](C)NC(=O)[C@H](C)NC(=O)[C@H](C)NC(=O)[C@H](C)NC(=O)[C@H](C)NC(=O)[C@@H](N)Cc1ccccc1)C(=O)O | 200 nM |  | 
FSYFPSI [FSYFPSI] |  | ≥ 50000 nM | 
CC[C@H](C)[C@H](N)C(=O)NCC(=O)N[C@@H](Cc1c[nH]cn1)C(=O)N[C@@H](CC(C)C)C(=O)N[C@@H](Cc1ccc(O)cc1)C(=O)N[C@H](C(=O)N[C@@H](Cc1ccccc1)C(=O)N[C@@H](C)C(=O)N[C@H](C(=O)N[C@@H](CS)C(=O)N[C@@H](CC(C)C)C(=O)NCC(=O)N[C@@H](CC(C)C)C(=O)N[C@@H](CO)C(=O)N[C@@H](Cc1ccc(O)cc1)C(=O)N[C@@H](CC(=O)O)C(=O)NCC(=O)N[C@@H](CC(C)C)C(=O)O)[C@@H](C)O)[C@@H](C)CC | > 816 nM |  | 
ENPVVHFFKIHVTPA |  |  | IC50 ([3]; read-out: DRBI *1501): 2.5 nM
LEDLLMGTLGIVCPI |  |  | IC50 ([4]; read-out: DRB4 *0101): 1800 nM; IC50 [5]: 1690 nM; IC50 ([6]; read-out: DRB5 *0101): 9480 nM
PQPFRKQQPYPQ |  |  | IC50 ([4]; DRB4 *0101): 22 nM
AFLRQAAAAAFAAY | 1000 nM | 2500 nM | 
AAFFFFFGGGGGA | 800 nM | ≥ 50000 nM | 
AFAAAKTAA | 571 nM |  | 
Ac-ASQKRPSQRHGSKYLATAST |  |  | IC50 ([6]; DRB5 *0101): 4560 nM
VGIRTPVLTSLFNKV |  |  | IC50 ([4]; read-out: DRB4 *0101): 97 nM; IC50 ([6]; read-out: DRB5 *0101): 80 nM
PQPFRPQQPYP |  |  | IC50 ([4]; DRB4 *0101): 14 nM
ENPVVAFFKNIVTPR |  |  | IC50 ([3]; DRBI *1501): 2.8 nM; IC50 ([6]; DRB5 *0101): 302 nM
GRLEYCLKDRRNFDI |  |  | IC50 ([6]; DRB5 *0101): 64700 nM
AAAKAAAAAAFAA | 235 nM |  | 
PEFLEQRRAAVDTYC | 80000 nM | 5000 nM | 
AAKGIKIGFGIFA | 471 nM | ≥ 50000 nM | 
QKWAAVVVPS | 1000 nM | ≥ 50000 nM | 
C[C@H](N)C(=O)N[C@@H](C)C(=O)N[C@@H](C)C(=O)N[C@@H](C)C(=O)N[C@@H](C)C(=O)N[C@@H](C)C(=O)N[C@@H](C)C(=O)N[C@@H](C)C(=O)N[C@@H](C)C(=O)N[C@@H](C)C(=O)N[C@@H](C)C(=O)N[C@@H](CC(N)=O)C(=O)N[C@@H](C)C(=O)O | 1000 nM | ≥ 50000 nM | 
DPNANPNVDPNAN |  |  | IC50 [7]: > 15600 nM; IC50 ([1]; read-out: DRB1 *0401): 738 nM
YARFLALTTLRARA |  |  | IC50 ([1]; read-out: DRB1 *0401): 0.28 nM; IC50 ([2]; read-out: DRB1 *0101): 0.98 nM
QFLGQQQPF |  |  | IC50 ([4]; DRB4 *0101): 5.3 nM
PKYGKQIDLKGAT |  | ≥ 50000 nM | 
AAANAAAAAAAAA |  |  | IC50 [2]: ≥ 50000 nM
QNILFSNAPLGPQFP | 195 nM |  | 
